Source: patent US20150011423A1, “MEANS AND METHODS FOR ASSESSING KIDNEY TOXICITY” (BASF SE, priority 2011, published 2015)
Marks after values point to notes of the source that are not given here. Values belong to the compound of their own block, whether it stands above or below them.

Test system: rats
Assay: 28-day repeated dose study in rats with mass spectrometry-based plasma metabolite profiling (GC-MS, LC-MS, SPE-LC-MS); treatment ratios versus control
Details: plasma; for Choline plasmalogen No 02 (putative), treatment ratio versus control / Lyso PE (C22:0) (putative), treatment ratio versus control / Lysophosphatidylcholine (C17:0), treatment ratio versus control / TAG (C42:9) (DAG-Fragment) (putative), treatment ratio versus control: Table 11b alpha 2 u globulin-nephropathy; for Cytosine, treatment ratio versus control / Glutamate, treatment ratio versus control: Table 6b ACE inhibitor induced like toxicity
[1] = female rats, day 14, high dose, Table 3a tubular defect
[2] = female rats, day 14, high dose, Table 3b tubular defect
[3] = female rats, day 28, high dose, Table 3a tubular defect
[4] = female rats, day 28, high dose, Table 3b tubular defect
[5] = male rats, day 14, high dose, Table 3c tubular defect
[6] = male rats, day 14, high dose, Table 3d tubular defect
[7] = male rats, day 28, high dose, Table 3c tubular defect
[8] = male rats, day 28, high dose, Table 3d tubular defect
[9] = male rats, day 7, high doses except for 1,1,2,2-tetrachloroethane
[10] = male rats, day 14, high doses except for 1,1,2,2-tetrachloroethane
[11] = male rats, day 28, high doses except for 1,1,2,2-tetrachloroethane
[12] = female rats, day 28, high dose, Table 5a tubular necrosis
[13] = female rats, day 28, high dose, Table 5b tubular necrosis
[14] = male rats, day 7, high dose, Table 7a interstitial nephritis
[15] = male rats, day 7, high dose, Table 7b interstitial nephritis
[16] = male rats, day 14, high dose, Table 7a interstitial nephritis
[17] = male rats, day 14, high dose, Table 7b interstitial nephritis
[18] = male rats, day 28, high dose, Table 7a interstitial nephritis
[19] = male rats, day 28, high dose, Table 7b interstitial nephritis

Procedure: A group of each 5 male and female rats was dosed once daily with the indicated compounds (see Table 9, below for compounds, applied doses and administration details) over 28 days.
Each dose group in the studies consisted of five rats per sex. Additional groups of each 5 male and female animals served as controls. Before starting the treatment period, animals, which were 62-64 days old when supplied, were acclimatized to the housing and environmental conditions for 7 days. All animals of the animal population were kept under the same constant temperature (20-24±3° C.) and the same constant humidity (30-70%). The animals of the animal population were fed ad libitum. The food to be used was essentially free of chemical or microbial contaminants. Drinking water was also offered ad libitum. […] The illumination period was 12 hours light followed by 12 hours darkness (12 hours light, from 6:00 to 18:00, and 12 hours darkness, from 18:00 to 6:00). […] The test substances (compounds in Table 9 were dosed and administered as described in the table above.
In the morning of day 7, 14, and 28, blood was taken from the retroorbital venous plexus from fasted anaesthetized animals. From each animal, 1 ml of blood was collected with EDTA as anticoagulant. The samples were centrifuged for generation of plasma. All plasma samples were covered with a N2 atmosphere and then stored at −80° C. until analysis.
For mass spectrometry-based metabolite profiling analyses plasma samples were extracted and a polar and a non-polar (lipid) fraction was obtained. For GC-MS analysis, the non-polar fraction was treated with methanol under acidic conditions to yield the fatty acid methyl esters. Both fractions were further derivatised with O-methyl-hydroxyamine hydrochloride and pyridine to convert Oxo-groups to O-methyloximes and subsequently with a silylating agent before analysis. In LC-MS analysis, both fractions were reconstituted in appropriate solvent mixtures. HPLC was performed by gradient elution on reversed phase separation columns.
Steroids and their metabolites were measured by online SPE-LC-MS (Solid phase extraction-LC-MS).
Following comprehensive analytical validation steps, the data for each analyte were normalized against data from pool samples. These samples were run in parallel through the whole process to account for process variability. The significance of treatment group values specific for sex, treatment duration and metabolite was determined by comparing means of the treated groups to the means of the respective untreated control groups using WELCH-test and quantified with treatment ratios versus control and p-values.

Compound: N.N.O=C([O-])C1(C(=O)[O-])CCC1.[Pt+2] [Carboplatin]
Creatine, treatment ratio versus control [1]: 1.22 *
Creatinine, treatment ratio versus control [1]: 0.85
Galactose, lipid fraction, treatment ratio versus control [1]: 1.17 *
Glucuronic acid, treatment ratio versus control [1]: 1.36
Glycerol-3-phosphate, polar fraction, treatment ratio versus control [1]: 1.66 *
Glycine, treatment ratio versus control [1]: 1.08
Histidine, treatment ratio versus control [1]: 1.03
Isoleucine, treatment ratio versus control [1]: 1.09 *
Leucine, treatment ratio versus control [1]: 1.13 *
Lysophosphatidylcholine (C18:1), treatment ratio versus control [1]: 0.98
Phosphatidylcholine No 02, treatment ratio versus control [1]: 1.07 *
TAG No 05, treatment ratio versus control [1]: 1.9 *
Threonic acid, treatment ratio versus control [1]: 1.14
Threonine, treatment ratio versus control [1]: 0.99
Uracil, treatment ratio versus control [1]: 1.07
Valine, treatment ratio versus control [1]: 1.07 *
Xylitol, treatment ratio versus control [1]: 0.83
Cysteine, treatment ratio versus control [2]: 0.83 *
Glycerol, polar fraction, treatment ratio versus control [2]: 0.88^
Hippuric acid, treatment ratio versus control [2]: 0.59^
Indole-3-acetic acid, treatment ratio versus control [2]: 0.38 *
Spermidine, treatment ratio versus control [2]: 0.95^
Sucrose, treatment ratio versus control [2]: 0.67 *
Creatine, treatment ratio versus control [3]: 1.41 *
Creatinine, treatment ratio versus control [3]: 1.59 *
Galactose, lipid fraction, treatment ratio versus control [3]: 0.84^
Glucuronic acid, treatment ratio versus control [3]: 1.24 *
Glycerol-3-phosphate, polar fraction, treatment ratio versus control [3]: 2.2 *
Glycine, treatment ratio versus control [3]: 1.17 *
Histidine, treatment ratio versus control [3]: 1.3 *
Isoleucine, treatment ratio versus control [3]: 1.35 *
Leucine, treatment ratio versus control [3]: 1.38 *
Lysophosphatidylcholine (C18:1), treatment ratio versus control [3]: 1.12 *
Phosphatidylcholine No 02, treatment ratio versus control [3]: 0.97^
TAG No 05, treatment ratio versus control [3]: 1.27 *
Threonic acid, treatment ratio versus control [3]: 1.23 *
Threonine, treatment ratio versus control [3]: 1.24 *
Uracil, treatment ratio versus control [3]: 1.37 *
Valine, treatment ratio versus control [3]: 1.25 *
Xylitol, treatment ratio versus control [3]: 1.56 *
Cysteine, treatment ratio versus control [4]: 0.67
Glycerol, polar fraction, treatment ratio versus control [4]: 0.78 *
Hippuric acid, treatment ratio versus control [4]: 0.3 *
Indole-3-acetic acid, treatment ratio versus control [4]: 0.65
Spermidine, treatment ratio versus control [4]: 0.69 *
Sucrose, treatment ratio versus control [4]: 0.61
Allantoin, treatment ratio versus control [5]: 1.4
Creatine, treatment ratio versus control [5]: 1.32 *
Glycerol-3-phosphate, polar fraction, treatment ratio versus control [5]: 1.59 *
Histidine, treatment ratio versus control [5]: 1.02
Kynurenic acid, treatment ratio versus control [5]: 1.21 *
Nervonic acid (C24:cis[15]1), treatment ratio versus control [5]: 1.02
Pantothenic acid, treatment ratio versus control [5]: 1.17
Pseudouridine, treatment ratio versus control [5]: 1.33 *
Taurine, treatment ratio versus control [5]: 1.18 *
Urea, treatment ratio versus control [5]: 1.47 *
16-Methylheptadecanoic acid, treatment ratio versus control [6]: 0.74 *
Linolenic acid (C18:cis[9,12,15]3), treatment ratio versus control [6]: 0.75
Phosphatidylcholine No 02, treatment ratio versus control [6]: 0.87 *
Phosphatidylcholine No 04, treatment ratio versus control [6]: 0.74 *
TAG (C18:1, C18:2), treatment ratio versus control [6]: 0.79 *
Allantoin, treatment ratio versus control [7]: 1.24 *
Creatine, treatment ratio versus control [7]: 1.42 *
Glycerol-3-phosphate, polar fraction, treatment ratio versus control [7]: 1.61 *
Histidine, treatment ratio versus control [7]: 1.22 *
Kynurenic acid, treatment ratio versus control [7]: 1.7
Nervonic acid (C24:cis[15]1), treatment ratio versus control [7]: 1.51 *
Pantothenic acid, treatment ratio versus control [7]: 1.47 *
Pseudouridine, treatment ratio versus control [7]: 1.11 *
Taurine, treatment ratio versus control [7]: 1.54 *
Urea, treatment ratio versus control [7]: 1.08
16-Methylheptadecanoic acid, treatment ratio versus control [8]: 0.51 *
Linolenic acid (C18:cis[9,12,15]3), treatment ratio versus control [8]: 0.7 *
Phosphatidylcholine No 02, treatment ratio versus control [8]: 0.91 *
Phosphatidylcholine No 04, treatment ratio versus control [8]: 0.78
TAG (C18:1, C18:2), treatment ratio versus control [8]: 0.62 *

3-Hydroxyindole (ratio treated vs control) (m7: male rats, day 7): 1.92
4-Hydroxysphinganine (t18:0, Phytosphingosine), total (ratio treated vs control) (m7: male rats, day 7): 1.46
Glucuronic acid (ratio treated vs control) (m7: male rats, day 7): 3.88
Glutamate (ratio treated vs control) (m7: male rats, day 7): 1.57
Nervonic acid (C24:cis[15]1) (ratio treated vs control) (m7: male rats, day 7): 1.60
Oleic acid (C18:cis[9]1) (ratio treated vs control) (m7: male rats, day 7): 2.10
Ornithine (ratio treated vs control) (m7: male rats, day 7): 1.12
Pantothenic acid (ratio treated vs control) (m7: male rats, day 7): 2.59
Phosphatidylcholine (C18:0, C18:1) (ratio treated vs control) (m7: male rats, day 7): 1.35
Pseudouridine (ratio treated vs control) (m7: male rats, day 7): 1.23
Sphingomyelin (d18:1, C16:0) (ratio treated vs control) (m7: male rats, day 7): 1.62
Sphingomyelin (d18:2, C18:0) (ratio treated vs control) (m7: male rats, day 7): 1.35
Xylitol (ratio treated vs control) (m7: male rats, day 7): 1.65
dihomo-gamma-Linolenic acid (C20:cis[8,11,14]3) (ratio treated vs control) (m7: male rats, day 7): 2.42
3-Hydroxyindole (ratio treated vs control) (m14: male rats, day 14): 2.88
4-Hydroxysphinganine (t18:0, Phytosphingosine), total (ratio treated vs control) (m14: male rats, day 14): 1.34
Glucuronic acid (ratio treated vs control) (m14: male rats, day 14): 3.87
Glutamate (ratio treated vs control) (m14: male rats, day 14): 1.44
Nervonic acid (C24:cis[15]1) (ratio treated vs control) (m14: male rats, day 14): 1.38
Oleic acid (C18:cis[9]1) (ratio treated vs control) (m14: male rats, day 14): 2.37
Ornithine (ratio treated vs control) (m14: male rats, day 14): 1.23
Pantothenic acid (ratio treated vs control) (m14: male rats, day 14): 3.07
Phosphatidylcholine (C18:0, C18:1) (ratio treated vs control) (m14: male rats, day 14): 1.34
Pseudouridine (ratio treated vs control) (m14: male rats, day 14): 1.31
Sphingomyelin (d18:1, C16:0) (ratio treated vs control) (m14: male rats, day 14): 1.59
Sphingomyelin (d18:2, C18:0) (ratio treated vs control) (m14: male rats, day 14): 1.28
Xylitol (ratio treated vs control) (m14: male rats, day 14): 1.33
dihomo-gamma-Linolenic acid (C20:cis[8,11,14]3) (ratio treated vs control) (m14: male rats, day 14): 2.06
3-Hydroxyindole (ratio treated vs control) (m28: male rats, day 28): 2.30
4-Hydroxysphinganine (t18:0, Phytosphingosine), total (ratio treated vs control) (m28: male rats, day 28): 1.26
Glucuronic acid (ratio treated vs control) (m28: male rats, day 28): 3.46
Glutamate (ratio treated vs control) (m28: male rats, day 28): 1.74
Nervonic acid (C24:cis[15]1) (ratio treated vs control) (m28: male rats, day 28): 1.22
Oleic acid (C18:cis[9]1) (ratio treated vs control) (m28: male rats, day 28): 2.97
Ornithine (ratio treated vs control) (m28: male rats, day 28): 1.23
Pantothenic acid (ratio treated vs control) (m28: male rats, day 28): 3.03
Phosphatidylcholine (C18:0, C18:1) (ratio treated vs control) (m28: male rats, day 28): 1.35
Pseudouridine (ratio treated vs control) (m28: male rats, day 28): 1.28
Sphingomyelin (d18:1, C16:0) (ratio treated vs control) (m28: male rats, day 28): 1.54
Sphingomyelin (d18:2, C18:0) (ratio treated vs control) (m28: male rats, day 28): 1.23
Xylitol (ratio treated vs control) (m28: male rats, day 28): 1.68
dihomo-gamma-Linolenic acid (C20:cis[8,11,14]3) (ratio treated vs control) (m28: male rats, day 28): 2.77
Choline plasmalogen No 02 (putative), treatment ratio versus control [9]: 0.72
Lyso PE (C22:0) (putative), treatment ratio versus control [9]: 0.54
Lysophosphatidylcholine (C17:0), treatment ratio versus control [9]: 0.72
TAG (C42:9) (DAG-Fragment) (putative), treatment ratio versus control [9]: 0.67
Choline plasmalogen No 02 (putative), treatment ratio versus control [10]: 0.73
Lyso PE (C22:0) (putative), treatment ratio versus control [10]: 0.49
Lysophosphatidylcholine (C17:0), treatment ratio versus control [10]: 0.73
TAG (C42:9) (DAG-Fragment) (putative), treatment ratio versus control [10]: 0.64
Choline plasmalogen No 02 (putative), treatment ratio versus control [11]: 0.81
Lyso PE (C22:0) (putative), treatment ratio versus control [11]: 0.45
Lysophosphatidylcholine (C17:0), treatment ratio versus control [11]: 0.80
TAG (C42:9) (DAG-Fragment) (putative), treatment ratio versus control [11]: 0.76
Compound: CC(C)CC(C)(C)C [2,2,4-Trimethylpentane, 2,2,4-trimethylpentane]

Compound: C[C@@H]1[C@H](O)[C@@H](C)/C=C/C=C/C=C/C=C/C=C/C=C/C=C/[C@H](O[C@@H]2O[C@H](C)[C@@H](O)[C@H](N)[C@@H]2O)C[C@@H]2O[C@](O)(C[C@@H](O)C[C@@H](O)[C@H](O)CC[C@@H](O)C[C@@H](O)CC(=O)O[C@H]1C)C[C@H](O)[C@H]2C(=O)O [Amphotericin B]
Docosahexaenoic acid (C22:cis[4,7,10,13,16,19]6), treatment ratio versus control [12]: 1.32 *
Docosapentaenoic acid (C22:cis[7,10,13,16,19]5), treatment ratio versus control [12]: 1.23 *
Eicosanoic acid (C20:0), treatment ratio versus control [12]: 1.18 *
Glycerol, lipid fraction, treatment ratio versus control [12]: 1.31 *
Leucine, treatment ratio versus control [12]: 1.21 *
Phosphate (inorganic and organic phosphates), treatment ratio versus control [12]: 1.25 *
Hippuric acid, treatment ratio versus control [13]: 0.44 *
Lactate, treatment ratio versus control [13]: 0.68 *

Eicosanoic acid (C20:0), treatment ratio versus control [14]: 1.81 *
Glucuronic acid, treatment ratio versus control [14]: 0.85 *
Glycerol, polar fraction, treatment ratio versus control [15]: 0.93^
Isopalmitic acid (C16:0), treatment ratio versus control [15]: 0.63 *
Kynurenic acid, treatment ratio versus control [15]: 0.75 *
Glucuronic acid, treatment ratio versus control [16]: 1
myo-Inositol-2-phosphate, treatment ratio versus control [16]: 1.01
Glycerol, polar fraction, treatment ratio versus control [17]: 0.86^
Isopalmitic acid (C16:0), treatment ratio versus control [17]: 0.54 *
Kynurenic acid, treatment ratio versus control [17]: 0.75 *
Glucuronic acid, treatment ratio versus control [18]: 1
Lignoceric acid (C24:0), treatment ratio versus control [18]: 1.3 *
Sphingomyelin (d18:1, C16:0), treatment ratio versus control [18]: 1.09
Threonine, treatment ratio versus control [18]: 1.55 *
Glycerol, polar fraction, treatment ratio versus control [19]: 0.73 *
Isopalmitic acid (C16:0), treatment ratio versus control [19]: 0.68 *
Kynurenic acid, treatment ratio versus control [19]: 0.71^
Compound: C[C@H](CCC(=O)O)[C@H]1CC[C@H]2[C@@H]3CC[C@@H]4C[C@H](O)CC[C@]4(C)[C@H]3CC[C@]12C [Lithocholic acid]

Compound: CCOC(=O)[C@H](CCc1ccccc1)N[C@@H](C)C(=O)N1[C@H](C(=O)O)C[C@@H]2CCC[C@@H]21 [Ramipril]
Cytosine, treatment ratio versus control (male rats, day 7, high dose): 0.7 *
Glutamate, treatment ratio versus control (male rats, day 7, high dose): 0.92 *
Glycine, treatment ratio versus control (male rats, day 14, high dose, Table 6a ACE inhibitor induced like toxicity): 1.5 *
Cytosine, treatment ratio versus control (male rats, day 14, high dose): 0.85 *
Glutamate, treatment ratio versus control (male rats, day 14, high dose): 0.71 *
Cytosine, treatment ratio versus control (male rats, day 28, high dose): 0.91^
Glutamate, treatment ratio versus control (male rats, day 28, high dose): 0.61 *
